Reference: the NIST ThermoML archive (doi:10.1021/je025657+)
Where “and” joins values, the source holds several entries; their conditions need not be identical. Equal entries are not always repeated.

COC(F)(F)C(F)(F)F [methyl pentafluoroethyl ether]
Settings | mass density [kg/m3]
300 K, 953.1 kPa, Liquid | 1264.98
300 K, 1060.7 kPa, Liquid | 1264.75
300 K, 1531 kPa, Liquid | 1267.74
300 K, 2019 kPa, Liquid | 1270.02
300 K, 2031.9 kPa, Liquid | 1269.32
300 K, 2496.4 kPa, Liquid | 1272.22
300 K, 2993.2 kPa, Liquid | 1274.45
300 K, 3055.9 kPa, Liquid | 1273.93
300 K, 3514 kPa, Liquid | 1276.75
300 K, 4031 kPa, Liquid | 1279
300 K, 4031.8 kPa, Liquid | 1278.16
300 K, 4522.9 kPa, Liquid | 1281.1
300 K, 4978 kPa, Liquid | 1283
300 K, 5197 kPa, Liquid | 1282.99
300 K, 5491.3 kPa, Liquid | 1285.12
300 K, 5997.8 kPa, Liquid | 1287.18
300 K, 6173.2 kPa, Liquid | 1286.91
300 K, 6524.7 kPa, Liquid | 1289.29
300 K, 7023.9 kPa, Liquid | 1291.24
300 K, 7126.4 kPa, Liquid | 1290.5
310 K, 21.5 kPa, Gas | 1.25
310 K, 31.7 kPa, Gas | 1.86
310 K, 97.3 kPa, Gas | 5.82
310 K, 144.4 kPa, Gas | 8.89
310 K, 195.7 kPa, Gas | 12.34
310 K, 245.2 kPa, Gas | 15.73
310 K, 276.7 kPa, Gas | 17.86
310 K, 300.3 kPa, Liquid | 1229.27
310 K, 312.6 kPa, Liquid | 1229.37
310 K, 517 kPa, Liquid | 1231.54
310 K, 1007.8 kPa, Liquid | 1234.36
310 K, 1029.3 kPa, Liquid | 1233.39
310 K, 1513.8 kPa, Liquid | 1237.16
310 K, 2033.1 kPa, Liquid | 1239.99
310 K, 2065.7 kPa, Liquid | 1238.99
310 K, 2524.9 kPa, Liquid | 1242.6
310 K, 3064.4 kPa, Liquid | 1245.4
310 K, 3131.6 kPa, Liquid | 1244.48
310 K, 3532.8 kPa, Liquid | 1247.78
310 K, 3972.8 kPa, Liquid | 1249.95
310 K, 4126.7 kPa, Liquid | 1249.38
310 K, 4507.3 kPa, Liquid | 1252.57
310 K, 5034.7 kPa, Liquid | 1255.08
310 K, 5145.5 kPa, Liquid | 1254.18
310 K, 5514.9 kPa, Liquid | 1257.34
310 K, 6031.8 kPa, Liquid | 1259.71
310 K, 6158.3 kPa, Liquid | 1258.81
310 K, 6533.8 kPa, Liquid | 1261.96
310 K, 7010.8 kPa, Liquid | 1264.09
310 K, 7224 kPa, Liquid | 1263.45
320 K, 61.7 kPa, Gas | 3.58
320 K, 90.4 kPa, Gas | 5.23
320 K, 101.6 kPa, Gas | 5.98
320 K, 132 kPa, Gas | 7.77
320 K, 155.5 kPa, Gas | 9.32
320 K, 191.5 kPa, Gas | 11.5
320 K, 213.2 kPa, Gas | 12.95
320 K, 276.1 kPa, Gas | 17.25
320 K, 336.5 kPa, Gas | 21.52
320 K, 383 kPa, Gas | 24.92
320 K, 384.9 kPa, Gas | 25.11
320 K, 389.1 kPa, Gas | 25.46
320 K, 413.8 kPa, Liquid | 1196.33
320 K, 506.3 kPa, Liquid | 1198.36
320 K, 1023.1 kPa, Liquid | 1201.87
320 K, 1053 kPa, Liquid | 1200.63
320 K, 1521.8 kPa, Liquid | 1205.15
320 K, 2002.9 kPa, Liquid | 1208.23
320 K, 2051.9 kPa, Liquid | 1207.02
320 K, 2517.3 kPa, Liquid | 1211.43
320 K, 3022.6 kPa, Liquid | 1214.49
320 K, 3053.1 kPa, Liquid | 1213.09
320 K, 3517.5 kPa, Liquid | 1217.45
320 K, 4012.9 kPa, Liquid | 1220.32
320 K, 4120.2 kPa, Liquid | 1219.2
320 K, 4543.1 kPa, Liquid | 1223.3
320 K, 5018.6 kPa, Liquid | 1225.9
320 K, 5085.4 kPa, Liquid | 1224.49
320 K, 5551.9 kPa, Liquid | 1228.77
320 K, 5992.8 kPa, Liquid | 1231.09
320 K, 6206.6 kPa, Liquid | 1230.35
320 K, 6495.8 kPa, Liquid | 1233.69
320 K, 6965.6 kPa, Liquid | 1236.06
320 K, 7182.7 kPa, Liquid | 1235.21
330 K, 70.8 kPa, Gas | 3.97
330 K, 98.4 kPa, Gas | 5.48
330 K, 103.9 kPa, Gas | 5.88
330 K, 151.6 kPa, Gas | 8.67
330 K, 169.4 kPa, Gas | 9.72
330 K, 219.7 kPa, Gas | 12.83
330 K, 235.2 kPa, Gas | 13.71
330 K, 295.3 kPa, Gas | 17.66
330 K, 307.4 kPa, Gas | 18.42
330 K, 315.2 kPa, Gas | 18.98
330 K, 375.8 kPa, Gas | 23.12
330 K, 444.8 kPa, Gas | 28.23
330 K, 472.9 kPa, Gas | 30.25
330 K, 547.4 kPa, Liquid | 1161.55
330 K, 1004 kPa, Liquid | 1165.27
330 K, 1009.1 kPa, Liquid | 1167.02
330 K, 1493.2 kPa, Liquid | 1170.86
330 K, 1999 kPa, Liquid | 1172.99

mass density
Settings | 300 K | 310 K | 320 K
Gas | – | 23.61 kg/m3 | 29.81 kg/m3
Liquid | 1260.39 kg/m3 and 1261.37 kg/m3 and 1261.41 kg/m3 | 1230.28 kg/m3 | 1196.29 kg/m3 and 1197.68 kg/m3
